From patent US20220177508A1, “C10-Cyclic Substituted 13-Membered Macrolides and Uses Thereof” (Zikani Therapeutics, Inc., priority 2018, published 2022) come the findings set out here.

A word on the MIC: it is the smallest concentration in the dilution series that meets the test's criterion for growth inhibition.

The structures appear in SMILES notation. In brackets after ≈: the same amount, converted by molar mass. Bounds are passed on as bounds.

Common to all, as to format: cell-based
In one experiment the test system is S. aureus MP-12. As to the kind of experiment: Broth dilution MIC determination (CLSI), S. aureus MP-12. Particulars: Staphylococcus aureus, MP12; strain MP-12, broth dilution.
For the next experiment, the system named is E. coli MP-4. As to the kind of experiment: Broth dilution MIC determination (CLSI), E. coli MP-4. Conditions: Escherichia coli, MP4; strain MP-4, broth dilution; read-out: MIC E. coli MP-4. (In general: Broth dilution looks for growth in wells or tubes with falling amounts of substance.)
For a further experiment, the system named is K. pneumoniae MP-546. Description: Broth dilution MIC determination (CLSI), K. pneumoniae MP-546. Particulars: Klebsiella pneumoniae, MP546; strain MP-546, broth dilution.
The next experiment has as its system K. pneumoniae MP-648. As to the kind of experiment: Broth dilution MIC determination (CLSI), K. pneumoniae MP-648. Conditions: Klebsiella pneumoniae, MP648; strain MP-648, broth dilution.
The subject of the next experiment is P. aeruginosa MP-3. Description: Broth dilution MIC determination (CLSI), P. aeruginosa MP-3. Conditions: Pseudomonas aeruginosa, MP3; strain MP-3, broth dilution.
The next experiment concerns A. baumannii MP-15. As to the kind of experiment: Broth dilution MIC determination (CLSI), A. baumannii MP-15. Particulars: Acinetobacter baumannii, MP15; strain MP-15, broth dilution; read-out: MIC A. baumanii MP-15.

On to `CO[C@]1(C)C[C@@H](C)CN(C)[C@H](C2CN(Cc3cnccn3)C2)COC(=O)C(C)(C)C(=O)[C@H](C)[C@H]1O[C@@H]1O[C@H](C)C[C@H](N(C)C)[C@H]1O` [Compound 55, (3R,6R,8R,9R,10R)-9-(((2S,3R,4S,6R)-4-(dimethylamino)-3-hydroxy-6-methyltetrahydro-2H-pyran-2-yl)oxy)-8-methoxy-4,6,8,10,12,12-hexamethyl-3-(1-(pyrazin-2-ylmethyl)azetidin-3-yl)-1-oxa-4-azacyclotridecane-11,13-dione], for which the minimum inhibitory concentration (MIC) against S. aureus MP-12 was 4 to 32 µg/mL (≈ 6.17 to 49.4 µM); in the experiment with E. coli MP-4, 4 to 32 µg/mL (≈ 6.17 to 49.4 µM); with K. pneumoniae MP-546 it was 4 to 32 µg/mL (≈ 6.17 to 49.4 µM); against K. pneumoniae MP-648, over 32 µg/mL; with P. aeruginosa MP-3 it was over 32 µg/mL; in the experiment on A. baumannii MP-15, over 32 µg/mL.
On to `CCCN1C[C@H](C)C[C@@](C)(OC)[C@H](O[C@@H]2O[C@H](C)C[C@H](N(C)C)[C@H]2O)[C@@H](C)C(=O)C(C)(C)C(=O)OC[C@H]1[C@H]1C[C@H](N(C)CC(C)C)C1` [Compound 60, (3R,6R,8R,9R,10R)-9-(((2S,3R,4S,6R)-4-(dimethylamino)-3-hydroxy-6-methyltetrahydro-2H-pyran-2-yl)oxy)-3-((1r,3R)-3-(isobutyl(methyl)amino)cyclobutyl)-8-methoxy-6,8,10,12,12-pentamethyl-4-propyl-1-oxa-4-azacyclotridecane-11,13-dione], for which the minimal inhibitory concentration (MIC) is 4 to 32 µg/mL (≈ 5.99 to 47.9 µM) in the experiment on S. aureus MP-12; under 4 µg/mL in the experiment with E. coli MP-4; 4 to 32 µg/mL (≈ 5.99 to 47.9 µM) against K. pneumoniae MP-546; 4 to 32 µg/mL (≈ 5.99 to 47.9 µM) with K. pneumoniae MP-648; over 32 µg/mL with P. aeruginosa MP-3; over 32 µg/mL with A. baumannii MP-15.
Regarding `CO[C@]1(C)C[C@@H](C)CN(C)[C@H](C2CN(C(=O)CCCN(C)CC3CC3)C2)COC(=O)C(C)(C)C(=O)[C@H](C)[C@H]1O[C@@H]1O[C@H](C)C[C@H](N(C)C)[C@H]1O` [Compound 61, (3R,6R,8R,9R,10R)-3-(1-(4-((cyclopropylmethyl)(methyl)amino)butanoyl)azetidin-3-yl)-9-(((2S,3R,4S,6R)-4-(dimethylamino)-3-hydroxy-6-methyltetrahydro-2H-pyran-2-yl)oxy)-8-methoxy-4,6,8,10,12,12-hexamethyl-1-oxa-4-azacyclotridecane-11,13-dione], the MIC in the experiment with S. aureus MP-12 was over 32 µg/mL; with E. coli MP-4 it was 4 to 32 µg/mL (≈ 5.64 to 45.1 µM); against K. pneumoniae MP-546, 4 to 32 µg/mL (≈ 5.64 to 45.1 µM); against K. pneumoniae MP-648, over 32 µg/mL; against P. aeruginosa MP-3 it was over 32 µg/mL; with A. baumannii MP-15, over 32 µg/mL.
With `CO[C@]1(C)C[C@@H](C)CN(C)[C@@H](C2CCN(CC3CCC3)CC2)COC(=O)C(C)(C)C(=O)[C@H](C)[C@H]1O[C@@H]1O[C@H](C)C[C@H](N(C)C)[C@H]1O` [Compound 69, (3S,6R,8R,9R,10R)-3-(1-(cyclobutylmethyl)piperidin-4-yl)-9-(((2S,3R,4S,6R)-4-(dimethylamino)-3-hydroxy-6-methyltetrahydro-2H-pyran-2-yl)oxy)-8-methoxy-4,6,8,10,12,12-hexamethyl-1-oxa-4-azacyclotridecane-11,13-dione], the MIC in the experiment with S. aureus MP-12 is 4 to 32 µg/mL (≈ 6.14 to 49.1 µM); in the experiment on E. coli MP-4, under 4 µg/mL; against K. pneumoniae MP-546 it was under 4 µg/mL; with K. pneumoniae MP-648, 4 to 32 µg/mL (≈ 6.14 to 49.1 µM); with P. aeruginosa MP-3 it was over 32 µg/mL; in the experiment on A. baumannii MP-15 it was over 32 µg/mL.
Turning to `CCN(C)[C@H]1C[C@H]([C@@H]2COC(=O)C(C)(C)C(=O)[C@H](C)[C@@H](O[C@@H]3O[C@H](C)C[C@H](N(C)C)[C@H]3O)[C@](C)(OC)C[C@@H](C)CN2C)C1` [Compound 71, (3R,6R,8R,9R,10R)-9-(((2S,3R,4S,6R)-4-(dimethylamino)-3-hydroxy-6-methyltetrahydro-2H-pyran-2-yl)oxy)-3-((1r,3R)-3-(ethyl(methyl)amino)cyclobutyl)-8-methoxy-4,6,8,10,12,12-hexamethyl-1-oxa-4-azacyclotridecane-11,13-dione], the MIC was 4 to 32 µg/mL (≈ 6.54 to 52.3 µM) against S. aureus MP-12; 4 to 32 µg/mL (≈ 6.54 to 52.3 µM) in the experiment with E. coli MP-4; under 4 µg/mL with K. pneumoniae MP-546; under 4 µg/mL against K. pneumoniae MP-648; over 32 µg/mL with P. aeruginosa MP-3; over 32 µg/mL in the experiment with A. baumannii MP-15.
Regarding `CO[C@]1(C)C[C@@H](C)CN(C)[C@@H](C2CCN(C[C@H]3COC(C)(C)O3)CC2)COC(=O)C(C)(C)C(=O)[C@H](C)[C@H]1O[C@@H]1O[C@H](C)C[C@H](N(C)C)[C@H]1O` [Compound 86, (3S,6R,8R,9R,10R)-3-(1-(((S)-2,2-dimethyl-1,3-dioxolan-4-yl)methyl)piperidin-4-yl)-9-(((2S,3R,4S,6R)-4-(dimethylamino)-3-hydroxy-6-methyltetrahydro-2H-pyran-2-yl)oxy)-8-methoxy-4,6,8,10,12,12-hexamethyl-1-oxa-4-azacyclotridecane-11,13-dione], the MIC with S. aureus MP-12 was 4 to 32 µg/mL (≈ 5.73 to 45.8 µM); with E. coli MP-4 it was under 4 µg/mL; in the experiment with K. pneumoniae MP-546 it was under 4 µg/mL; against K. pneumoniae MP-648 it was 4 to 32 µg/mL (≈ 5.73 to 45.8 µM); in the experiment on P. aeruginosa MP-3, over 32 µg/mL; in the experiment with A. baumannii MP-15, over 32 µg/mL.
In the case of `CCCN1C[C@H](C)C[C@@](C)(OC)[C@H](O[C@@H]2O[C@H](C)C[C@H](N(C)C)[C@H]2O)[C@@H](C)C(=O)C(C)(C)C(=O)OC[C@H]1[C@H]1C[C@H](N(C)CC)C1` [Compound 94, (3R,6R,8R,9R,10R)-9-(((2S,3R,4S,6R)-4-(dimethylamino)-3-hydroxy-6-methyltetrahydro-2H-pyran-2-yl)oxy)-3-((1r,3R)-3-(ethyl(methyl)amino)cyclobutyl)-8-methoxy-6,8,10,12,12-pentamethyl-4-propyl-1-oxa-4-azacyclotridecane-11,13-dione], the MIC is 4 to 32 µg/mL (≈ 6.25 to 50 µM) in the experiment on S. aureus MP-12; under 4 µg/mL in the experiment on E. coli MP-4; under 4 µg/mL in the experiment on K. pneumoniae MP-546; 4 to 32 µg/mL (≈ 6.25 to 50 µM) with K. pneumoniae MP-648; over 32 µg/mL with P. aeruginosa MP-3; over 32 µg/mL with A. baumannii MP-15.
Turning to `CCCN1C[C@H](C)C[C@@](C)(OC)[C@H](O[C@@H]2O[C@H](C)C[C@H](N(C)C)[C@H]2O)[C@@H](C)C(=O)C(C)(C)C(=O)OC[C@H]1[C@H]1C[C@H](N(C)CC2CC2)C1` [Compound 95, (3R,6R,8R,9R,10R)-3-((1r,3R)-3-((cyclopropylmethyl)(methyl)amino)cyclobutyl)-9-(((2S,3R,4S,6R)-4-(dimethylamino)-3-hydroxy-6-methyltetrahydro-2H-pyran-2-yl)oxy)-8-methoxy-6,8,10,12,12-pentamethyl-4-propyl-1-oxa-4-azacyclotridecane-11,13-dione], the MIC against S. aureus MP-12 is 4 to 32 µg/mL (≈ 6.01 to 48.1 µM); with E. coli MP-4, under 4 µg/mL; against K. pneumoniae MP-546, under 4 µg/mL; against K. pneumoniae MP-648 it was 4 to 32 µg/mL (≈ 6.01 to 48.1 µM); in the experiment on P. aeruginosa MP-3, over 32 µg/mL; in the experiment with A. baumannii MP-15, over 32 µg/mL.
Regarding `CO[C@]1(C)C[C@@H](C)CN(C)[C@H](C2CN(CC3CCCC3)C2)COC(=O)C(C)(C)C(=O)[C@H](C)[C@H]1O[C@@H]1O[C@H](C)C[C@H](N(C)C)[C@H]1O` [Compound 103, (3R,6R,8R,9R,10R)-3-(1-(cyclopentylmethyl)azetidin-3-yl)-9-(((2S,3R,4S,6R)-4-(dimethylamino)-3-hydroxy-6-methyltetrahydro-2H-pyran-2-yl)oxy)-8-methoxy-4,6,8,10,12,12-hexamethyl-1-oxa-4-azacyclotridecane-11,13-dione], the MIC is 4 to 32 µg/mL (≈ 6.27 to 50.2 µM) against S. aureus MP-12; under 4 µg/mL with E. coli MP-4; under 4 µg/mL against K. pneumoniae MP-546; 4 to 32 µg/mL (≈ 6.27 to 50.2 µM) against K. pneumoniae MP-648; over 32 µg/mL with P. aeruginosa MP-3; 4 to 32 µg/mL (≈ 6.27 to 50.2 µM) with A. baumannii MP-15.
`CO[C@]1(C)C[C@@H](C)CN(C)[C@@H](C2CCN(CC3CC3)CC2)COC(=O)C(C)(C)C(=O)[C@H](C)[C@H]1O[C@@H]1O[C@H](C)C[C@H](N(C)C)[C@H]1O` [Compound 108, (3S,6R,8R,9R,10R)-3-(1-(cyclopropylmethyl)piperidin-4-yl)-9-(((2S,3R,4S,6R)-4-(dimethylamino)-3-hydroxy-6-methyltetrahydro-2H-pyran-2-yl)oxy)-8-methoxy-4,6,8,10,12,12-hexamethyl-1-oxa-4-azacyclotridecane-11,13-dione]: the minimum inhibitory concentration (MIC) with S. aureus MP-12 was 4 to 32 µg/mL (≈ 6.27 to 50.2 µM); in the experiment with E. coli MP-4, under 4 µg/mL; in the experiment with K. pneumoniae MP-546, under 4 µg/mL; against K. pneumoniae MP-648, under 4 µg/mL; in the experiment with P. aeruginosa MP-3, over 32 µg/mL; with A. baumannii MP-15, over 32 µg/mL.
As for `CO[C@]1(C)C[C@@H](C)CN(C)[C@H](C2CN(C(=O)[C@@H]3CCN(C)C3)C2)COC(=O)C(C)(C)C(=O)[C@H](C)[C@H]1O[C@@H]1O[C@H](C)C[C@H](N(C)C)[C@H]1O` [Compound 111, (3R,6R,8R,9R,10R)-9-(((2S,3R,4S,6R)-4-(dimethylamino)-3-hydroxy-6-methyltetrahydro-2H-pyran-2-yl)oxy)-8-methoxy-4,6,8,10,12,12-hexamethyl-3-(1-((R)-1-methylpyrrolidine-3-carbonyl)azetidin-3-yl)-1-oxa-4-azacyclotridecane-11,13-dione], the minimal inhibitory concentration (MIC) against S. aureus MP-12 is 4 to 32 µg/mL (≈ 6 to 48 µM); in the experiment with E. coli MP-4, 4 to 32 µg/mL (≈ 6 to 48 µM); with K. pneumoniae MP-546 it was 4 to 32 µg/mL (≈ 6 to 48 µM); in the experiment on K. pneumoniae MP-648 it was 4 to 32 µg/mL (≈ 6 to 48 µM); in the experiment with P. aeruginosa MP-3 it was over 32 µg/mL; with A. baumannii MP-15, over 32 µg/mL.
As for `CO[C@]1(C)C[C@@H](C)CN(C)[C@H](C2CN(CC(C)(C)C)C2)COC(=O)C(C)(C)C(=O)[C@H](C)[C@H]1O[C@@H]1O[C@H](C)C[C@H](N(C)C)[C@H]1O` [Compound 114, (3R,6R,8R,9R,10R)-9-(((2S,3R,4S,6R)-4-(dimethylamino)-3-hydroxy-6-methyltetrahydro-2H-pyran-2-yl)oxy)-8-methoxy-4,6,8,10,12,12-hexamethyl-3-(1-neopentylazetidin-3-yl)-1-oxa-4-azacyclotridecane-11,13-dione], the MIC against S. aureus MP-12 is 4 to 32 µg/mL (≈ 6.39 to 51.1 µM); in the experiment with E. coli MP-4 it was under 4 µg/mL; with K. pneumoniae MP-546 it was under 4 µg/mL; with K. pneumoniae MP-648, 4 to 32 µg/mL (≈ 6.39 to 51.1 µM); in the experiment on P. aeruginosa MP-3, over 32 µg/mL; in the experiment on A. baumannii MP-15 it was over 32 µg/mL.
